From ChEMBL document CHEMBL5352388 (Eur J Med Chem, 2022)
Calls of active or inactive are those of the source. The rule behind the calls is not given here.

What was measured:
[1] = biological target: CYP2C9 (Homo sapiens, UniProt P11712); assay: Inhibition of CYP2C9 (unknown origin) at 10 uM incubated for 20 mins in presence of NADPH by LC/MS/MS analysis relative to control; assay type: ADME
[2] = biological target: T1, Amine oxidase [flavin-containing] A (Homo sapiens, UniProt P21397)
T1 sequence (P21397 whole entry): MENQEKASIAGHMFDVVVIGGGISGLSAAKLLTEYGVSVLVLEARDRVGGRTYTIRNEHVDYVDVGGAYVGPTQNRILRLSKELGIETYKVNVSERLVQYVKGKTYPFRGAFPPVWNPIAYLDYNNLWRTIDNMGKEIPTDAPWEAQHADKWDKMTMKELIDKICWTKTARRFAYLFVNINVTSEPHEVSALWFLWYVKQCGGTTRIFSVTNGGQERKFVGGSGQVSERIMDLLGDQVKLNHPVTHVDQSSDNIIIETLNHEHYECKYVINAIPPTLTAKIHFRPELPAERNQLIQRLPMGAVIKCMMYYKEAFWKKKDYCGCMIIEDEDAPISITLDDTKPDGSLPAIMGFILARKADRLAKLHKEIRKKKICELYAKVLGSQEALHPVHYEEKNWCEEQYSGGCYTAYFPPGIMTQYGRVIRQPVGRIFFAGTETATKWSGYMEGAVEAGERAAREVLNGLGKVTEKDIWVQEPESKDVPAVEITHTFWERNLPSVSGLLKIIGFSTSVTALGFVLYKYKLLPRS
Description: Inhibition of recombinant MAO-A (unknown origin) incubated for 60 mins by luminescence based flow cytometry

[3] = Intrinsic clearance in human liver microsomes measured upto 60 mins in presence of NADPH by LC/MS/MS analysis; assay type: ADME, Microsome; details: read-out: CLH
[4] = system: MCF7; assay: cells; details: Homo sapiens, MCF7, 72 h
Description: Antiproliferative activity against human MCF7 cells assessed as inhibition of cell growth incubated for 72 hrs by CCK-8 assay

[5] = Half life in human liver microsomes measured upto 60 mins in presence of NADPH by LC/MS/MS analysis; assay type: ADME, Microsome
[6] = biological target: CYP3A4 (Homo sapiens, UniProt P08684); assay: Inhibition of CYP3A4 (unknown origin) at 10 uM incubated for 20 mins in presence of NADPH by LC/MS/MS analysis relative to control; assay type: ADME
[7] = biological target: T2, Amine oxidase [flavin-containing] B (Homo sapiens, UniProt P27338)
T2 sequence (P27338 whole entry): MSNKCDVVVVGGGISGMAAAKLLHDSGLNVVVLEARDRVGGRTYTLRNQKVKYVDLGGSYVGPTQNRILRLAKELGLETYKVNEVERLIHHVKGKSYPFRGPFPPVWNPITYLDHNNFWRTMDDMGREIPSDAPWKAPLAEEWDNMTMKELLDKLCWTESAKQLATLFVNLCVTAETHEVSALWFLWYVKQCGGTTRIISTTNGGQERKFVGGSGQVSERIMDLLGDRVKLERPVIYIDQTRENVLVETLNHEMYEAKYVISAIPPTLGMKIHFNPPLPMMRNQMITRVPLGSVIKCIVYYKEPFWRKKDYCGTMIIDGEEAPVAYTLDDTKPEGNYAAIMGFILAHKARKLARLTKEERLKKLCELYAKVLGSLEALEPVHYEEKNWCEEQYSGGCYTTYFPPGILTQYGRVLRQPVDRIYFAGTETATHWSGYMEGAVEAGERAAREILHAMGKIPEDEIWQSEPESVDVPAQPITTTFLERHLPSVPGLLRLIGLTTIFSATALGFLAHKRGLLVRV
Description: Inhibition of recombinant MAO-B (unknown origin) incubated for 60 mins by luminescence based flow cytometry

[8] = system: MGC-803; assay: cells; details: Homo sapiens, MGC-803, 72 h
Description: Antiproliferative activity against human MGC-803 cells assessed as inhibition of cell growth incubated for 72 hrs by CCK-8 assay

[9] = biological target: CYP2D6 (Homo sapiens, UniProt P10635); assay: Inhibition of CYP2D6 (unknown origin) at 10 uM incubated for 20 mins in presence of NADPH by LC/MS/MS analysis relative to control; assay type: ADME
[10] = system: NCI-H460; assay: cells; details: Homo sapiens, NCI-H460, 72 h
Description: Antiproliferative activity against human NCI-H460 cells assessed as inhibition of cell growth incubated for 72 hrs by CCK-8 assay

[11] = Toxicity in BALB/c mouse xenografted with human A549 cells assessed as change in body weight at 10 mg/kg,ip administrated for 15 days; assay type: organism-based; details: in vivo, 360 h, time 15 day
[12] = Intrinsic clearance in human liver measured upto 60 mins in presence of NADPH by LC/MS/MS analysis; assay type: ADME, tissue-based; details: read-out: CLH
[13] = system: A549; assay: Antitumor activity against human A549 cells xenografted in BALB/c mouse assessed as reduction in tumor growth at 10 mg/kg,ip administrated for 15 days; assay type: functional, organism-based; details: time 15.0 day
[14] = biological target: CYP2C19 (Homo sapiens, UniProt P33261); assay: Inhibition of CYP2C19 (unknown origin) at 10 uM incubated for 20 mins in presence of NADPH by LC/MS/MS analysis relative to control; assay type: ADME
[15] = system: A549; assay: Induction of apoptosis in human A549 cells at 4 uM incubated for 48 hrs by Annexin V-FITC/PI staining based flow cytometry method; assay type: functional
[16] = biological target: T3, CYP1A2 (Homo sapiens, UniProt P05177); assay: Inhibition of CYP1A2 (unknown origin) at 10 uM incubated for 20 mins in presence of NADPH by LC/MS/MS analysis relative to control; assay type: ADME
T3 sequence (P05177 whole entry): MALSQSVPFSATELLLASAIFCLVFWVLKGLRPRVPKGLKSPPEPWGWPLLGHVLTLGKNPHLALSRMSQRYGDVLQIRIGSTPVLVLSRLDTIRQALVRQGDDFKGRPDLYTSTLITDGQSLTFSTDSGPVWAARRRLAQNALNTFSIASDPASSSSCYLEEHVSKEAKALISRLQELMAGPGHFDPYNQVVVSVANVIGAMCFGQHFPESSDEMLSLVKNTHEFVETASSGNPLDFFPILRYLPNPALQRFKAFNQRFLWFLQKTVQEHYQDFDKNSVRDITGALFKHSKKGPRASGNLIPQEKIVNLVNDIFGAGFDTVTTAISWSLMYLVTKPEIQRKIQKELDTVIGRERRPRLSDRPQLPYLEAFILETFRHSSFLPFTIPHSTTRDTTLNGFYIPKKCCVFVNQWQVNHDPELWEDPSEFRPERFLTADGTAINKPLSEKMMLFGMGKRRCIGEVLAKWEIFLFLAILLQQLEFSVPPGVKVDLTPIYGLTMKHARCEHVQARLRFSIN

[17] = biological target: Voltage-gated inwardly rectifying potassium channel KCNH2 (Homo sapiens, UniProt Q12809); assay: Inhibition of human ERG stably expressed in CHO cells by patch clamp assay; assay type: toxicity, cell-based
[18] = system: A549; assay: cells; details: Homo sapiens, A549, 72 h
Description: Antiproliferative activity against human A549 cells assessed as inhibition of cell growth incubated for 72 hrs by CCK-8 assay

[19] = in vitro; details: human, THLE-2 cells
Description: Antiproliferative activity against human THLE-2 cells assessed as inhibition of cell growth incubated for 72 hrs by CCK-8 assay

[20] = system: HeLa; assay: Antiproliferative activity against human HeLa cells assessed as inhibition of cell growth incubated for 72 hrs by CCK-8 assay; assay type: functional, cell-based

Sequence of Voltage-gated inwardly rectifying potassium channel KCNH2 (Q12809 whole entry): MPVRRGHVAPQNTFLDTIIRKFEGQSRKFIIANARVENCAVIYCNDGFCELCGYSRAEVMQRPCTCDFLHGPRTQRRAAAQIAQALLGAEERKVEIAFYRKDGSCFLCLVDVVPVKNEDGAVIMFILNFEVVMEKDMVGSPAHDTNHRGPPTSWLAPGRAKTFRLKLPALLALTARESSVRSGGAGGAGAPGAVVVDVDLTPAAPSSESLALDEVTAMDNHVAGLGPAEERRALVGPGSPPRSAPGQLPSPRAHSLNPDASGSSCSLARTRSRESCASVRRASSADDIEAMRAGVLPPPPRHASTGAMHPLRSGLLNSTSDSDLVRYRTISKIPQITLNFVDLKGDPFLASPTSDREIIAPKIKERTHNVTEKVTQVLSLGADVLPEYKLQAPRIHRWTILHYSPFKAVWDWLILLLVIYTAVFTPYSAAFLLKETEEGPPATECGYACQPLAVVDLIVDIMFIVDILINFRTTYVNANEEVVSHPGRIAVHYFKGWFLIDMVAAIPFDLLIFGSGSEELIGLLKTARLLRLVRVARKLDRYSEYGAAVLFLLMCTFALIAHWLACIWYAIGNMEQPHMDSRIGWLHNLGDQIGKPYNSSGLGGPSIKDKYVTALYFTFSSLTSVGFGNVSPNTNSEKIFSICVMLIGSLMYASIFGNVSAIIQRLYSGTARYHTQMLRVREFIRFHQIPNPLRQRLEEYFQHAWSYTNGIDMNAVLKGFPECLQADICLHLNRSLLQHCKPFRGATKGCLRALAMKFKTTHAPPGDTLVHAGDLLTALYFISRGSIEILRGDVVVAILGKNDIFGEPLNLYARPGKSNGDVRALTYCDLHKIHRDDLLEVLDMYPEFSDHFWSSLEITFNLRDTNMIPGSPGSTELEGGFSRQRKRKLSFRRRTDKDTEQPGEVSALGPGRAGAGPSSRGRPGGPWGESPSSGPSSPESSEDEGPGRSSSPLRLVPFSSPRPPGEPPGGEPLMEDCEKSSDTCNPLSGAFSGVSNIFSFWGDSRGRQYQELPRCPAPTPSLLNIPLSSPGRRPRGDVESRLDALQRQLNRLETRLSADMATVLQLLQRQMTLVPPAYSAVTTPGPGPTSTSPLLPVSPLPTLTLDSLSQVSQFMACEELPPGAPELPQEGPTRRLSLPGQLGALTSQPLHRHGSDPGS
Sequence of CYP2D6 (P10635 whole entry): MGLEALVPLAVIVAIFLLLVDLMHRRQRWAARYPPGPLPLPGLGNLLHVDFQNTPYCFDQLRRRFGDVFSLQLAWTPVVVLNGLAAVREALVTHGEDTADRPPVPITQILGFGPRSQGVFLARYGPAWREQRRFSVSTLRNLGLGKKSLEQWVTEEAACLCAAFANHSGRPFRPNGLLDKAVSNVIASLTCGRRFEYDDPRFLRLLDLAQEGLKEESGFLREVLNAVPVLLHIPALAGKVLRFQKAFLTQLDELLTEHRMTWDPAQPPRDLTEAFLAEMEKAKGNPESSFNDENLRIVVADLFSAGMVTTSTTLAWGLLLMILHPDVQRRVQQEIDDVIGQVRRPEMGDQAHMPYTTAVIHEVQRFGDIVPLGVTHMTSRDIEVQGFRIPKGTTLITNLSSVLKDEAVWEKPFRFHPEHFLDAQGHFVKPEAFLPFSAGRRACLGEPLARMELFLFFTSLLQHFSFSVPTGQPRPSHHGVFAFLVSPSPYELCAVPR
Sequence of CYP3A4 (P08684 whole entry): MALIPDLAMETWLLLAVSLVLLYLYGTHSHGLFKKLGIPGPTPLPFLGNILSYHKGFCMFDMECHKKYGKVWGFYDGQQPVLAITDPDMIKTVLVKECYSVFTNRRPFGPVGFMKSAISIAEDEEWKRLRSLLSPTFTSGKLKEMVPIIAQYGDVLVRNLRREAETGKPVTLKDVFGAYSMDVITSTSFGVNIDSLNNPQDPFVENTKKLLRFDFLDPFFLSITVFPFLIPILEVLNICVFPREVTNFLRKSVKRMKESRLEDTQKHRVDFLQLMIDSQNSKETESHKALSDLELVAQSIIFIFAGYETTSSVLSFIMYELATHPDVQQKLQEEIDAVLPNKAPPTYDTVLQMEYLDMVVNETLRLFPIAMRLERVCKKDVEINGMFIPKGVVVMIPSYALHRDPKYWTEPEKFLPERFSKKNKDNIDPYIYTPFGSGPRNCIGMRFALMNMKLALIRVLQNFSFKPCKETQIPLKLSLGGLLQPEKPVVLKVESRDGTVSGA
Sequence of CYP2C9 (P11712 whole entry): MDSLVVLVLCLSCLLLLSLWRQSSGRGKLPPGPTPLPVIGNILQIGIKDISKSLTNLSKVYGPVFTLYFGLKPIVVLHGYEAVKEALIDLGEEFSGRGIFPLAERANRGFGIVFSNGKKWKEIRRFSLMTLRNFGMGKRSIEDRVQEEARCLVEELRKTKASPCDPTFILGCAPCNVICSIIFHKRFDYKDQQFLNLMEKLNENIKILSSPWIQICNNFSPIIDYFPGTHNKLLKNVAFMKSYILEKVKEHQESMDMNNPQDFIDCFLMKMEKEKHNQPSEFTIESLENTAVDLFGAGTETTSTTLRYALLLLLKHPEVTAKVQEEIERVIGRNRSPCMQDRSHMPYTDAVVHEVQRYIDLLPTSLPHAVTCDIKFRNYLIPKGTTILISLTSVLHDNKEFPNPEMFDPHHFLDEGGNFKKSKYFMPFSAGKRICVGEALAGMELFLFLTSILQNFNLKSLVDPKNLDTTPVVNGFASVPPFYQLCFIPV
Sequence of CYP2C19 (P33261 whole entry): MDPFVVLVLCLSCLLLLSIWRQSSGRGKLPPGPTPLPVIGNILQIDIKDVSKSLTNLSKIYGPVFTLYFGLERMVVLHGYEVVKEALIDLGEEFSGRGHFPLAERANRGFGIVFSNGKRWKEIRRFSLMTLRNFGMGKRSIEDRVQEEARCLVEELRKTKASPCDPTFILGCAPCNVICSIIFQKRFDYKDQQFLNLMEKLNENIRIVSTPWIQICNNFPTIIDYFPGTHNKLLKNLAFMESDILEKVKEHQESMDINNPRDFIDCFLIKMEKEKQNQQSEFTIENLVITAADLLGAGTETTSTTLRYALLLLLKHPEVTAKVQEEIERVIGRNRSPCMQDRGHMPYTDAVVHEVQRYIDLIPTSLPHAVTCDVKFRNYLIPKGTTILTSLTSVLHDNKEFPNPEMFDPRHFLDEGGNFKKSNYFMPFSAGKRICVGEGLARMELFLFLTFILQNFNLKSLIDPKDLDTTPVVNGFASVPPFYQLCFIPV

Cc1ccc(-c2cc3occ(CN4CCC[C@H](N)C4)c3cc2-c2ccc(C#N)cc2)cc1
inhibition at 20 min, 10 µM [1]: 3.6%
IC50 [2]: > 20 µM
microsomal CLint [3]: 24.5 µL/min/mg
IC50 [4]: 10.5 µM
half-life [5]: 56.6 min
inhibition at 20 min, 10 µM [6]: 19%
IC50 [7]: > 20 µM
IC50 [8]: 11.5 µM
inhibition at 20 min, 10 µM [9]: 88.6%
IC50 [10]: 4.8 µM
Activity [11]: Non-Toxic
CLint scaled [12]: 22.1 mL/min/kg
Activity [13]: Active
inhibition at 20 min, 10 µM [14]: 10.5%
Activity [15]: 20.94%
inhibition at 20 min, 10 µM [16]: 4.9%
IC50 [17]: 6.06 µM
IC50 [18]: 3.6 µM
IC50 at 72 h [19]: 5.7 µM
IC50 [20]: 10.2 µM
